Experimental data reported in US11535643B2, “Macrolides with modified desosamine sugars and uses thereof” (President and Fellows of Harvard College, priority 2015, dated 2022).
Values after ≈ are worked out from the molar mass of the structure shown. Like-named read-outs stand apart in the source and are kept apart here.

Experiments:
Type in all cases: cell-based
S. aureus = experiment: Broth dilution MIC determination (CLSI) against S. aureus strains; details: for MIC: Staphylococcus aureus
In short: (§1)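 Following CLSI procedures, broth dilution is used to find the MIC for each strain. Controls: azithromycin and solithromycin.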

S. pneumoniae = experiment: Broth dilution MIC determination (CLSI) against S. pneumoniae strains; details: for MIC: Streptococcus pneumoniae
In short: as §1

S. pyogenes = experiment: Broth dilution MIC determination (CLSI) against S. pyogenes strains; details: for MIC: Streptococcus pyogenes
In short: as §1

E. faecalis = experiment: Broth dilution MIC determination (CLSI) against E. faecalis strains; details: for MIC: Enterococcus faecalis
In short: as §1

E. coli = experiment: Broth dilution MIC determination (CLSI) against E. coli strains; details: for MIC: Escherichia coli
In short: as §1

A. baumannii = experiment: Broth dilution MIC determination (CLSI) against A. baumannii strains; details: for MIC: Acinetobacter baumannii
In short: as §1

K. pneumoniae = experiment: Broth dilution MIC determination (CLSI) against K. pneumoniae strains; details: for MIC: Klebsiella pneumoniae
In short: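 Azithromycin and solithromycin served as controls; MICs were obtained by standard CLSI broth dilution on a strain panel including multidrug-resistant and macrolide-resistant isolates.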

P. aeruginosa = experiment: Broth dilution MIC determination (CLSI) against P. aeruginosa strains; details: for MIC: Pseudomonas aeruginosa
In short: as §1

H. influenzae = experiment: Broth dilution MIC determination (CLSI) against H. influenzae strains; details: for MIC: Haemophilus influenzae
In short: as §1

[1] = MRSA / USA100, MRSA: USA100, read-out: MIC S. aureus MRSA: USA100
[2] = MRSA / USA300, MRSA: USA300, read-out: MIC S. aureus MRSA: USA300
[3] = USA600, USA600, GISA, read-out: MIC S. aureus USA600, GISA
[4] = read-out: MIC S. aureus erm A genotype
[5] = ATCC49619, ATCC49619, read-out: MIC S. pneumoniae ATCC49619
[6] = erm B + tet(M, O) genotype, read-out: MIC S. pneumoniae erm B + tet(M, O) genotype
[7] = ATCC19615, ATCC19615, read-out: MIC S. pyogenes ATCC19615
[8] = macrolide-resistant, read-out: MIC S. pyogenes macrolide-resistant
[9] = Vancomycin-resistant, read-out: MIC E. faecalis Vancomycin-resistant
[10] = ATCC25922, ATCC25922, read-out: MIC E. coli ATCC25922
[11] = read-out: MIC E. coli NDM-1, NDM-1
[12] = ATCC19606, ATCC19606, read-out: MIC A. baumannii ATCC19606
[13] = imipenem-resistant, read-out: MIC A. baumannii imipenem-resistant
[14] = ATCC10031, ATCC10031, read-out: MIC K. pneumoniae ATCC10031
[15] = KPC-2, read-out: MIC K. pneumoniae KPC-2
[16] = ATCC27853, read-out: MIC P. aeruginosa ATCC27853
[17] = ATCC49247, ATCC49247, read-out: MIC H. influenzae ATCC49247
[18] = ATCC29213, ATCC29213, read-out: MIC S. aureus ATCC29213
[19] = erm B + mef A genotype, read-out: MIC S. pneumoniae erm B + mef A genotype
[20] = read-out: MIC S. pneumoniae mef A genotype, mef A genotype
[21] = read-out: MIC S. pneumoniae mef A genotype, mef A genotype, first of two such columns (c3)
[22] = ATCC29212, ATCC29212, read-out: MIC E. faecalis ATCC29212
[23] = erythro > 4, azithro 1, read-out: MIC H. influenzae erythro > 4, azithro 1

**Q.** `CC[C@H]1OC(=O)[C@H](C)C(=O)[C@H](C)[C@@H](O[C@@H]2OC(Cn3cc(-c4ccccn4)nn3)CC(N(C)C)C2O)[C@](C)(OC)C[C@@H](C)CN[C@H](C)[C@H]2N(CCCCn3cc(-c4cccc(N)c4)nn3)C(=O)O[C@]12C` (some centres unmarked) [FSM-22111] was tested. Which “MIC S. aureus ATCC29213” value (S. aureus) did it give?
**A.** 2 µg/mL (≈ 2.06 µM)

**Q.** And the MIC (S. aureus; [1])?
**A.** > 32 µg/mL

**Q.** What about the MIC (S. aureus; [2]) of the same molecule?
**A.** > 32 µg/mL

**Q.** What about the MIC (S. aureus; [3]) of the same molecule?
**A.** > 32 µg/mL

**Q.** And the MIC (S. aureus; [4])?
**A.** > 32 µg/mL

**Q.** What about the MIC (S. pneumoniae; [5]) of the same molecule?
**A.** ≤ 0.0312 µg/mL

**Q.** What about the MIC (S. pneumoniae; [6]) of the same molecule?
**A.** ≤ 0.0312 µg/mL

**Q.** And the “MIC S. pneumoniae erm B + mef A genotype” value (S. pneumoniae; erm B + mef A genotype)?
**A.** 2 µg/mL

**Q.** And the MIC (S. pyogenes; [7])?
**A.** ≤ 0.0312 µg/mL

**Q.** What about the MIC (S. pyogenes; [8]) of the same molecule?
**A.** 1 µg/mL (≈ 1.03 µM)

**Q.** What about the “MIC E. faecalis ATCC29212” value (E. faecalis) of the same molecule?
**A.** 0.25 µg/mL (≈ 0.257 µM)

**Q.** What about the MIC (E. faecalis; [9]) of the same molecule?
**A.** > 32 µg/mL

**Q.** What about the MIC (E. coli; [10]) of the same molecule?
**A.** 16 µg/mL (≈ 16.5 µM)

**Q.** And the MIC (E. coli; read-out: MIC E. coli CTX-M-14, CTX-M-14)?
**A.** > 32 µg/mL

**Q.** And the MIC (E. coli; [11])?
**A.** 32 µg/mL (≈ 32.9 µM)

**Q.** And the MIC (E. coli; read-out: MIC E. coli TEM-1, TEM-1)?
**A.** 16 µg/mL (≈ 16.5 µM)

**Q.** And the MIC (A. baumannii; [12])?
**A.** 16 µg/mL (≈ 16.5 µM)

**Q.** What about the MIC (A. baumannii; IMP-4, read-out: MIC A. baumannii IMP-4) of the same molecule?
**A.** > 32 µg/mL

**Q.** What about the MIC (A. baumannii; chromosomal class C, read-out: MIC A. baumannii chromosomal class C) of the same molecule?
**A.** 16 µg/mL (≈ 16.5 µM)

**Q.** And the MIC (A. baumannii; [13])?
**A.** 16 µg/mL (≈ 16.5 µM)

**Q.** And the MIC (K. pneumoniae; [14])?
**A.** 8 µg/mL (≈ 8.23 µM)

**Q.** What about the MIC (K. pneumoniae; [15]) of the same molecule?
**A.** 32 µg/mL (≈ 32.9 µM)

**Q.** And the MIC (K. pneumoniae; SHV-12, read-out: MIC K. pneumoniae SHV-12)?
**A.** > 32 µg/mL

**Q.** What about the “MIC K. pneumoniae TEM-10” value (K. pneumoniae; TEM-10) of the same molecule?
**A.** 8 µg/mL (≈ 8.23 µM)

**Q.** What about the MIC (P. aeruginosa; [16]) of the same molecule?
**A.** > 32 µg/mL

**Q.** And the MIC (P. aeruginosa; read-out: MIC P. aeruginosa HPA101-1477)?
**A.** > 32 µg/mL

**Q.** And the MIC (H. influenzae; [17])?
**A.** 2 µg/mL (≈ 2.06 µM)

**Q.** What about the “MIC H. influenzae erythro > 4, azithro 1” value (H. influenzae; erythro > 4, azithro 1) of the same molecule?
**A.** 1 µg/mL (≈ 1.03 µM)

**Q.** What does the source list for `CC[C@H]1OC(=O)[C@H](C)C(=O)[C@H](C)[C@@H](O[C@@H]2OC(CNS(=O)(=O)c3cccnc3)CC(N(C)C)C2O)[C@](C)(OC)C[C@@H](C)CN[C@H](C)[C@H]2N(CCCCn3cc(-c4cccc(N)c4)nn3)C(=O)O[C@]12C` (some centres unmarked) [FSM-21876]?
**A.** MIC (S. aureus; [18]): 16 µg/mL (≈ 16.3 µM); MIC (S. aureus; [1]): > 32 µg/mL; MIC (S. aureus; [2]): > 32 µg/mL; MIC (S. aureus; [3]): > 32 µg/mL; MIC (S. aureus; [4]): > 32 µg/mL; MIC (S. pneumoniae; [5]): 0.125 µg/mL (≈ 0.127 µM); MIC (S. pneumoniae; [19]): 8 µg/mL; MIC (S. pneumoniae; [6]): 0.0313 µg/mL; MIC (S. pneumoniae; [20]): 16 µg/mL (≈ 16.3 µM); MIC (S. pneumoniae; [21]): 4 µg/mL (≈ 4.06 µM); MIC (S. pyogenes; [7]): 0.0625 µg/mL (≈ 0.0635 µM); MIC (S. pyogenes; [8]): 2 µg/mL (≈ 2.03 µM); MIC (E. faecalis; [22]): 2 µg/mL (≈ 2.03 µM); MIC (E. faecalis; [9]): > 32 µg/mL; MIC (E. coli; [10]): 32 µg/mL (≈ 32.5 µM); MIC (E. coli; [11]): > 32 µg/mL; MIC (A. baumannii; [12]): > 32 µg/mL; MIC (A. baumannii; [13]): 32 µg/mL (≈ 32.5 µM); MIC (K. pneumoniae; [14]): 16 µg/mL (≈ 16.3 µM); MIC (K. pneumoniae; [15]): 32 µg/mL (≈ 32.5 µM); MIC (P. aeruginosa; [16]): > 32 µg/mL; MIC (H. influenzae; [17]): 4 µg/mL (≈ 4.06 µM); MIC (H. influenzae; [23]): 16 µg/mL (≈ 16.3 µM)

**Q.** What does the source list for `CC[C@H]1OC(=O)[C@H](C)C(=O)[C@H](C)[C@@H](O[C@@H]2OC(CNC(=O)CNC(C)(C)C)CC(N(C)C)C2O)[C@](C)(OC)C[C@@H](C)CN[C@H](C)[C@H]2N(CCCCn3cc(-c4cccc(N)c4)nn3)C(=O)O[C@]12C` (some centres unmarked) [FSM-21879]?
**A.** MIC (S. aureus; [18]): 32 µg/mL (≈ 33.5 µM); MIC (S. aureus; [1]): > 32 µg/mL; MIC (S. aureus; [2]): > 32 µg/mL; MIC (S. aureus; [3]): > 32 µg/mL; MIC (S. aureus; [4]): > 32 µg/mL; MIC (S. pneumoniae; [5]): < 0.0313 µg/mL; MIC (S. pneumoniae; [19]): 1 µg/mL; MIC (S. pneumoniae; [6]): < 0.0313 µg/mL; MIC (S. pneumoniae; [20]): 4 µg/mL (≈ 4.18 µM); MIC (S. pneumoniae; [21]): 0.25 µg/mL (≈ 0.261 µM); MIC (S. pyogenes; [7]): < 0.0313 µg/mL; MIC (S. pyogenes; [8]): 2 µg/mL (≈ 2.09 µM); MIC (E. faecalis; [22]): 16 µg/mL (≈ 16.7 µM); MIC (E. faecalis; [9]): > 32 µg/mL; MIC (E. coli; [10]): 32 µg/mL (≈ 33.5 µM); MIC (E. coli; [11]): 32 µg/mL (≈ 33.5 µM); MIC (A. baumannii; [12]): > 32 µg/mL; MIC (A. baumannii; [13]): > 32 µg/mL; MIC (K. pneumoniae; [14]): 8 µg/mL (≈ 8.37 µM); MIC (K. pneumoniae; [15]): > 32 µg/mL; MIC (P. aeruginosa; [16]): > 32 µg/mL; MIC (H. influenzae; [17]): 16 µg/mL (≈ 16.7 µM); MIC (H. influenzae; [23]): 8 µg/mL (≈ 8.37 µM)

**Q.** Which results are given for `CCC1OC(=O)C(C)C(=O)C(C)C(OC2OC(COC(=O)c3ccccc3)C(O)C(N(C)C)C2O)C(C)(OC)CC(C)CNC(C)C2N(CCCCn3cc(-c4cccc(N)c4)nn3)C(=O)OC12C` (centres unmarked) [FSM-21797]?
**A.** MIC S. aureus ATCC29213 (S. aureus): >32 µg/mL; MIC S. aureus MRSA: USA100 (S. aureus; MRSA: USA100): >32 µg/mL; MIC S. aureus MRSA: USA300 (S. aureus; MRSA: USA300): >32 µg/mL; MIC S. aureus USA600, GISA (S. aureus; USA600, GISA): >32 µg/mL; MIC S. aureus erm A genotype (S. aureus; erm A genotype): >32 µg/mL; MIC S. pneumoniae ATCC49619 (S. pneumoniae; ATCC49619): 32 µg/mL (≈ 33.2 µM); MIC S. pneumoniae erm B + mef A genotype (S. pneumoniae; erm B + mef A genotype): >32 µg/mL; MIC S. pneumoniae erm B + tet(M, O) genotype (S. pneumoniae; erm B + tet(M, O) genotype): 16 µg/mL; MIC S. pyogenes ATCC19615 (S. pyogenes; ATCC19615): 8 µg/mL (≈ 8.3 µM); MIC S. pyogenes macrolide-resistant (S. pyogenes; macrolide-resistant): 32 µg/mL (≈ 33.2 µM); MIC E. faecalis ATCC29212 (E. faecalis): 32 µg/mL (≈ 33.2 µM); MIC E. faecalis Vancomycin-resistant (E. faecalis; Vancomycin-resistant): >32 µg/mL; MIC E. coli ATCC25922 (E. coli; ATCC25922): >32 µg/mL; MIC E. coli NDM-1 (E. coli; NDM-1): >32 µg/mL; MIC A. baumannii ATCC19606 (A. baumannii; ATCC19606): >32 µg/mL; MIC A. baumannii imipenem-resistant (A. baumannii; imipenem-resistant): >32 µg/mL; MIC K. pneumoniae ATCC10031 (K. pneumoniae; ATCC10031): >32 µg/mL; MIC K. pneumoniae KPC-2 (K. pneumoniae; KPC-2): >32 µg/mL; MIC P. aeruginosa ATCC27853 (P. aeruginosa; ATCC27853): >32 µg/mL; MIC H. influenzae ATCC49247 (H. influenzae; ATCC49247): >32 µg/mL; MIC H. influenzae erythro > 4, azithro 1 (H. influenzae; erythro > 4, azithro 1): >32 µg/mL
